The source of these data is US10570463B2, “Nucleic acid modifying agents and uses thereof” (BIOTIUM, INC., priority 2014, dated 2020).

Assay [1] concerns Staphylococcus epidermidis. The assay is described as follows: Viability PCR (dCt, 16S rDNA) after dye treatment and photolysis, cultured Staphylococcus epidermidis. The assay is classed as cell-based. The note with it: 50 uM dye, 3D; for dCt, modification of DNA in live cells: live S. epidermidis, 470 nm light 15 min, FIG. 1, 2B. The protocol: Escherichia coli, Salmonella enterica, and Bacillus subtilis were cultured in tryptic soy broth (TSB). Staphylococcus epidermidis was cultured in nutrient broth (NB). Bacteria were cultured overnight at 37° C. The following day, the absorbance of the cultures at 600 nm was measured and the cultures were diluted to OD600=1.0 in growth media. Bacteria cultures were pipetted into 1.5 mL screw-top tubes at 400 uL per tube. For dead cell samples, tubes were placed in a 95° C. heat block for 5 minutes, and then allowed to return to room temperature. PMA products (cat #40013 and 40019, Biotium) and selected compounds of the disclosure (104.1, 014, or 020, where indicated) were diluted to 2.5 mM in water, and then 8 uL was added to the bacterial culture for a final concentration of 50 uM. Cultures were incubated on a rocker in the dark at room temperature for 10 minutes, and then exposed to 470 nm wavelength light in the PMA-Lite LED device for 15 minutes. Samples were centrifuged at 5000×g for 10 minutes and the supernatant was aspirated off. DNA was then purified from bacterial pellets using the Qiagen Blood and Tissue kit and eluted in 100 uL elution buffer.
PCR was performed using the universal primers DG74 and RW01 which amplify a 370-bp region of the 16S rDNA. Forward Primer DG74 sequence: 5′-AGG AGG TGA TCC AAC CGC A-3′. Reverse Primer RW01 sequence: 5′-AACTGGAGGAAGGTGGGGAT-3′. The following PCR mix was prepared for each sample: 12.5 uL Fast EvaGreen Master Mix (Biotium), 1 uL 5 uM primer mix, 9.5 uL water, and 2 uL isolated bacterial DNA. […] 25 sec, 72° C., acquiring fluorescence after this step. Using the Rotor-Gene Q software, normalized fluorescence and Ct values were calculated. The change in Ct (dCt) caused by a dye was calculated by subtracting the Ct of the untreated bacteria from the Ct of the dye-treated bacteria.
Live Staphylococcus epidermidis (a gram-positive bacteria) was either left untreated, treated with one of two versions of commercial PMA products (cat #40013 and 40019, Biotium), or treated with a compound of the present disclosure (compound 104.1, 014, or 020). Viability PCR was performed and the effect of each dye was measured by determining the dCt. The dCt was calculated by subtracting the Ct of untreated sample from dye-treated sample. […]
(§1) Live or dead Bacillus subtilis (FIG. 2A) or Staphylococcus epidermidis (FIG. 2B) were either left untreated, treated with one of two versions of commercial PMA products (cat #40013 and cat #40019, Biotium), or treated with Compound 104.1. Viability PCR was performed and the effect of each dye was measured by determining the dCt. The dCt was calculated by subtracting the Ct of untreated sample from dye-treated sample. […]

The next assay has as its system Staphylococcus aureus. The note with it: samples collected by swabbing from surfaces; cited from earlier work.
A further assay has as its system swabbed S. epidermidis. The assay is described as follows: Viability PCR (dCt) in Staphylococcus epidermidis collected by swabbing. The assay is classed as cell-based. The note with it: live and heat-killed S. epidermidis dried on plastic and swabbed; FIG. 5. On the procedure: As in Example 16, Staphylococcus epidermidis was cultured in nutrient broth (NB) overnight at 37° C. The following day, the absorbance of the cultures at 600 nm was measured and the cultures were diluted to OD600=1.0 in growth media. For dead cell samples, bacteria were placed in a 95° C. heat block for 5 minutes, and then allowed to return to room temperature. 1200 uL of live or dead bacteria were spread separately onto sterile plastic petri dishes and air-dried for four hours. To mimic a common method of bacterial sample collection, a sterile cotton swab was moistened with NB, swabbed on the plate and swirled in a tube containing 1200 uL NB. This process was repeated 3 times each for live and dead bacteria, until most of the bacteria from the plate had been transferred into the media. 400 uL of swabbed bacteria was pipetted into tubes, and either left untreated, treated with PMA dye, or treated with Compound 014, as described in Example 16. Viability PCR was performed and the effect of each dye was measured by determining the dCt. The dCt was calculated by subtracting the Ct of untreated sample from dye-treated sample. […] The dCt values are shown above each bar.

The test system of assay [2] is Mycobacterium avium subspecies paratuberculosis (MAP). The note with it: PMA qPCR; cited from earlier work.
Assay [3] has as its system Salmonella serovar Enteritidis. Particulars: cited from earlier work.
The test system of assay [4] is Jurkat cells. Briefly: Viability staining of live and heat-killed Jurkat cells, flow cytometry. Particulars: 1 uM. The assay is classed as cell-based, human. On the procedure:
Jurkat cells were maintained in RPMI media supplemented with 10% fetal bovine serum, 10 mM HEPES, and 1 mM sodium pyruvate. Cells were counted and diluted to 1.0×10^6 cells/mL in growth media. Cells were pelleted by centrifugation at 350×g and resuspended in PBS. Half of the cells were heat-killed by incubation in a 56° C. water bath for 45 minutes. After they had cooled to room temperature, live and dead cells were combined in a 1:1 ratio, pelleted and washed once with PBS, and resuspended in PBS at 1.0×10^6 cells/mL. Aliquots of 1 mL were pipetted into 1.5 mL microcentrifuge tubes. Working in the dark, PMA and compound 104.1 were diluted to 1 mM in water. 1 uL of the indicated compound was added to 1 mL of cells for a final concentration of 1 uM. Cells were incubated in the dark, rocking, for 10 minutes, then exposed to light in the PMA-Lite for 15 minutes. Cells were transferred to FACS tubes and pelleted. Half of the tubes were placed at 4° C. in the dark (unfixed). […]
Stained cells were analyzed by flow cytometry on a BD LSRII. For detection of PMA and compound 104.1 staining, samples were excited with the 488 nm laser, and the signal was detected in the PE-Texas Red channel. Flow cytometry data was analyzed using FlowJo software from […]. […]
Background: In flow cytometry, cells or beads pass a laser one at a time.

In assay [5] the test system is Jurkat cells. Briefly: Viability staining of live and heat-killed Jurkat cells, fluorescence microscopy. The note with it: Cy3 filter. It is filed as cell-based, human. On the procedure:
1:1 mixtures of live and heat-killed Jurkat cells were prepared and treated with PMA, as described in Example 21. The cells were transferred to a black optical bottom 96-well plate and imaged on an Olympus IX71 inverted fluorescence microscope using a Cy3 filter cube and Retiga 2000R Fast 1394 digital CCD camera with 300 msec exposure time. Imaging results are provided in FIG. 7A-D. The stained cells were either left unfixed (FIGS. 7A and B) or fixed and permeabilized (FIGS. 7C and D). Fluorescence images (FIGS. 7A and C) show stained cells, while merged fluorescence/phase contrast images (FIGS. 7B and D) show stained and unstained cells.

Assay [6] relates to relatively short amplicons. Particulars: cited from earlier work.
Another assay deals with Escherichia coli. The assay is described as follows: Viability PCR (dCt, 16S rDNA) after dye treatment and photolysis, cultured Escherichia coli. The assay is classed as cell-based. The note with it: 50 uM dye, compared with PMA, FIG. 3A. On the procedure: (§2) Escherichia coli, Salmonella enterica, and Bacillus subtilis were cultured in tryptic soy broth (TSB). Staphylococcus epidermidis was cultured in nutrient broth (NB). Bacteria were cultured overnight at 37° C. The following day, the absorbance of the cultures at 600 nm was measured and the cultures were diluted to OD600=1.0 in growth media. Bacteria cultures were pipetted into 1.5 mL screw-top tubes at 400 uL per tube. For dead cell samples, tubes were placed in a 95° C. heat block for 5 minutes, and then allowed to return to room temperature. […]
(§3) PCR was performed using the universal primers DG74 and RW01 which amplify a 370-bp region of the 16S rDNA. […] 25 sec, 72° C., acquiring fluorescence after this step. Using the Rotor-Gene Q software, normalized fluorescence and Ct values were calculated. The change in Ct (dCt) caused by a dye was calculated by subtracting the Ct of the untreated bacteria from the Ct of the dye-treated bacteria.
(§4) Live or dead Escherichia coli (FIG. 3A), Salmonella enterica (FIG. 3B), Bacillus subtilis (FIG. 3C) or Staphylococcus epidermidis (FIG. 3D) were either left untreated, treated with PMA, or treated with Compound 014. Viability PCR was performed and the effect of each dye was measured by determining the dCt. The dCt was calculated by subtracting the Ct of untreated sample from dye-treated sample. […]

In another assay the test system is Bacillus subtilis. Briefly: Viability PCR (dCt, 16S rDNA) after dye treatment and photolysis, cultured Bacillus subtilis. The assay is classed as cell-based. The note with it: 50 uM dye, compared with PMA, FIG. 2A, 3C. On the procedure:
as §2, §3, §1

A further assay relates to Salmonella enterica. Briefly: Viability PCR (dCt, 16S rDNA) after dye treatment and photolysis, cultured Salmonella enterica. The assay is classed as cell-based. Particulars: 50 uM dye, compared with PMA, FIG. 3B. The protocol: as §2, §3, §4

Entries after “also recorded” stand apart in the source; their conditions may differ.

For `[N-]=[N+]=Nc1ccc2c3ccc(N)cc3c(-c3ccccc3)[n+](CCCCCC(=O)NCCOCCOCCOCCOCCC(=O)N[C@@H](CS(=O)(=O)[O-])C(=O)O)c2c1` [Compound 020], in [1], the “dCt, modification of DNA in live cells” value is reported as “little to none”.
Regarding `CC[N+](C)(CC)CCC[n+]1c(-c2ccccc2)c2cc(N=[N+]=[N-])ccc2c2ccc(N)cc21` [PMA, propidium monoazide], the “determination of amount of living cells” value in the assay on Staphylococcus aureus is reported as “does not allow the determination of amount of living cells”. Moreover, in the assay on swabbed S. epidermidis, the “live/dead discrimination by dCt” value is “did not function well to discriminate live and dead”. For the same compound, the figures for the “entry of dye into viable cells” value in [2] and in [3] (viable Salmonella serovar Enteritidis) were “found to enter viable MAP” and “found to enter viable Salmonella serovar Enteritidis”, respectively. In addition, the “suppression of qPCR signal from killed bacteria” value in assay [3] (killed Salmonella serovar Enteritidis) is “ineffective in suppressing qPCR signal from the killed bacteria”. For the same compound, the “staining of live and dead cells after fixation and permeabilization” value with Jurkat cells [4] (2% formaldehyde, 0.1% Triton X-100, FIG. 6B, 6D) is recorded as “increase in staining of live cells (loss of specificity)”. Also, the “staining of live and dead cells, unfixed” value in the assay on Jurkat cells [4] (unfixed cells, 488 nm laser, PE-Texas Red channel, FIG. 6A, 6C) is reported as “bright, specific staining of dead cells”. For the same compound, the “dCt, modification of DNA in live cells” value in assay [1] is “causes some modification of DNA”. Further, the “fluorescence discrimination of stained and unstained cells, fixed and permeabilized” value in the assay on Jurkat cells [5] (fixed and permeabilized cells, FIG. 7C, 7D) was “PMA staining is retained after fixation, with clear discrimination between PMA-positive and PMA-negative cells”. Besides, the “fluorescence discrimination of stained and unstained cells, unfixed” value in the assay on Jurkat cells [5] (unfixed cells, FIG. 7A, 7B) was “greater difference in fluorescence intensity between PMA-positive and PMA-negative cells”. For the same compound, the “effect of PMA treatment on amplification of short amplicons” value in assay [6] is “not affected by PMA treatment”.
Regarding `C[N+](C)(C)CCNC(=O)CCOCCOCCOCCOCCNC(=O)CCCCC[n+]1c(-c2ccccc2)c2cc(N)ccc2c2ccc(N=[N+]=[N-])cc21` [Compound 014], the “dCt, effect on dead cells” value in the assay with Escherichia coli (heat-killed E. coli) is recorded as “greater effect on dead cells”; in the assay on Bacillus subtilis (heat-killed B. subtilis), “greater effect on dead cells”; in the assay with Salmonella enterica (heat-killed S. enterica), “greater effect on dead cells”; in assay [1] (heat-killed S. epidermidis, compared with PMA, FIG. 2B) it was “greater effect on dead cells”. In addition, the “dCt, effect on live cells” value with Escherichia coli (live E. coli), in the assay on Bacillus subtilis (live B. subtilis) and with Salmonella enterica (live S. enterica) was “less of an effect on live cells” each time. Moreover, in the assay on swabbed S. epidermidis, the “live/dead discrimination by dCt” value is “showed a large difference between live and dead cells”. Moreover, the “dCt, modification of DNA in live cells” value in assay [1] was “little to none; also recorded: less of an effect on live cells”.
